# Source: patent US8686126B2, “HBV drug resistance methods” (priority 2002, dated 2014)
# Tested on: HBsAg
# Assay: Serum levels of HBsAg by modified Laurell electrophoresis in HBV-infected patient No. 7
# Type: in vivo
# Conditions: lamivudine treatment, just after breakthrough virus emerged
# Procedure: HBsAg, anti-HBs, HBeAg, anti-HBe, and anti-HCV were determined by the microparticle enzyme-immunoassay ([…]) method (Abbott Laboratories, North Chicago, Ill., US). Anti-HDV enzyme-immunoassay method was performed as per the methodology supplied by the manufacturer (Abbott Laboratories, North Chicago, Ill., US). Serum levels of HBsAg were determined by a modified Laurell electrophoresis system (Gerlich et al., 1975). HBV-DNA levels were tested by using a commercial liquid-hybridization assay (Digene, Maryland, US), with the lower limit of detection of this assay 5 pg/mL of viral DNA.
# The HBsAg level of the patient was 1.19 μg/mL at the beginning of the lamivudine treatment and became undetectable after 4 months.
smiles,measurement,value
"Nc1ccn([C@@H]2CS[C@H](CO)O2)c(=O)n1 [lamivudine, beta-L-(−)-2′,3′-dideoxy-3′-thiacytidine]",HBsAg level,10.8 µg/mL
